From PMC12316777 come the findings set out here.

Like-named read-outs stand apart in the source and are kept apart here.

Data set [1] has as its system SARS-CoV-2 Omicron BA.5 in VeroE6-TMPRSS2 cells. As to the kind of experiment: Plaque reduction assay. The class given is cell-based. As to conditions: VeroE6-TMPRSS2, n = 2, read-out: EC50, inhibition of SARS-CoV-2 virus replication.
Data set [2] deals with SARS-CoV-2 nsp14/nsp10 complex (Severe acute respiratory syndrome coronavirus 2, UniProt P0DTD1). Put plainly: FRET-based exoribonuclease (ExoN) activity assay. The format is biochemical. The conditions noted are these: for IC50: nsp14/nsp10 pre-incubated with compound 1 h, n = 3, read-out: IC50 (± SD) ExoN.
Data set [3] addresses T1, SARS-CoV-2 nsp14 (Severe acute respiratory syndrome coronavirus 2, UniProt P0DTD1). The format is biochemical. As to conditions: for IC50: read-out: IC50 (± SD) MTase; for Km: increasing molar equivalents of Au(I).
For data set [4], the target named is SARS-CoV-2 nsp10 (Severe acute respiratory syndrome coronavirus 2, UniProt P0DTD1). As to the kind of experiment: Metal displacement analysis (equilibrium dialysis, ICP-MS), nsp10. The format is binding. From the text:
(§1) Since nsp14 and nsp10 have 3 and 2 zinc-finger motifs respectively, playing structural roles and as well as being important to the functions of nsp14/nsp10 complex. The soft nature of Au(I) makes it very likely to bind to the thiolates/nitrogen atoms in these cysteine/histidine-rich zinc-binding sites. To verify this, we then investigated the binding of Au(I) to the native nsp14 and nsp10 using equilibrium dialysis and determined the metal contents by inductively coupled plasma mass spectrometry (ICP-MS). […] Similarly, ca. 1.84 ± 0.66 mol equiv of Au(I) bound to per nsp10, accompanied by ca. 1.89 ± 0.28 mol equiv of Zn(II) release. […] In addition, since the ExoN activity of nsp14 is largely stimulated by nsp10, and nsp10 − nsp14 intermolecular interaction involves residues around the zinc finger of nsp10 [33, 34], we also examined the influence of Au(I) binding to nsp10 on the ExoN activity of nsp14.
(§2) Au(I) binding and Zn(II) release on nsp10 and nsp14 were determined by Inductively Coupled Plasma Mass Spectrometry (ICP-MS) on Agilent 7700 × ICP-MS (Agilent Technologies). […] Dialysis tubes loaded with 100 μL Zn-bound proteins (5 μM for nsp14 and nsp13 and 20 μM for nsp10) or protein buffer were placed into 50 mL dialysis buffer in the presence of different concentrations of Au(I) compounds (as Au(PEt3)Cl) with mild shaking at 18 °C overnight. The protein concentration was measured by bicinchoninic acid (BCA) assay, and the metal concentration of solution both inside and outside the dialysis tubes was determined by ICP-MS.

The target of data set [5] is T1, SARS-CoV-2 nsp14. Put plainly: EMSA of nsp14 binding to dsRNA ExoN substrate. As to conditions: 4 µM nsp14, 0–40 µM drug, 200 nM dsRNA. From the text: Next, we explored the inhibition mechanism of nsp14/nsp10 by Au(I). We first investigated the inhibition mode of Au(I) on the dual activities of nsp14, for which we selected Au(PEt3)Cl as a showcase. To explore the influence of Au(I) on the kinetics of the nsp14/nsp10 ExoN activity, a 20-nucleotide 5′-dU overhang conjugated to a Cy3/BHQ2 pair was used as an RNA duplex substrate. Then, the reciprocals of the reaction velocity and the concentration of the two substrates were used to plot the Lineweaver–Burk plot. And the Michaelis–Menten constant (Km) and the maximum reaction rate (Vmax) were calculated by nonlinear fitting to the Michaelis − Menten equation.
RNA-binding capability of nsp14 was determined by EMSA. […] For the bismuth(III) and Au(I) addition assays, nsp14 (4 µM) was pre-incubated with various concentrations of drugs (0, 1, 2, 4, 8, 20, 40 µM) in HEPES buffer for 2 h on ice before the RNA-binding assays before incubating with 200 nM of dsRNA at room temperature for 15 min. A 20 µL of the reaction mixture was then loaded onto 6% native-polyacrylamide gels and electrophoresed in 1xTBE buffer. Electrophoresis was carried out at 100 V for 50 min. Gels were subsequently stained by GelRed (Sigma Aldrich) for 5 min at room temperature and visualized through iBright™ CL750 Imaging System (Thermo Fisher Scientific).
ExoN substrates. Relative band intensities were quantified by ImageJ. […]

Data set [6] concerns the target T1, SARS-CoV-2 nsp14. Put plainly: Metal displacement analysis (equilibrium dialysis, ICP-MS), nsp14. The format is binding.
Text: as §1, §2

For data set [7], the target named is T1, SARS-CoV-2 nsp14. As to the kind of experiment: Size-exclusion chromatography of nsp14. The conditions noted are these: 0−10 molar equivalents; monomer peak 9.6 mL decreases, peak at ca. 9.1 mL appears.
The target of data set [8] is T1, SARS-CoV-2 nsp14. Put plainly: Circular dichroism spectroscopy of nsp14 (BeStSel). As to conditions: CD deconvoluted by BeStSel; around 65% in untreated nsp14.
Data set [9] addresses nsp14 (ExoN/N7-MTase) (SARS-CoV-2 isolate Wuhan-Hu-1, UniProt P0DTD1 5926-6452). As to the kind of experiment: EMSA; no Au(I); 200 nM dsRNA, nsp14 0-8 uM. As to conditions: protein: recombinant; tags: N-terminal 6xHis, removed with thrombin; label: 5'-Cy3 on top strand; labels in EMSA not restated.
Where [10] appears, read: nsp14 pre-incubated with compound 1 h, n = 3.

On to `CC(=O)OC[C@H]1O[C@@H]([S-])[C@H](OC(C)=O)[C@@H](OC(C)=O)[C@@H]1OC(C)=O.CCP(CC)CC.[Au+]` [auranofin], for which the EC50 in data set [1] was found to be 0.73 ± 0.21 µM.

Take “(1-(adamantan-1-yl)thiourea)-(triethylphosphine)-gold(I) [Au-amantadine]”: the figures for the IC50 in data set [2] and in [3] (setting [10]) were 1.57 ± 0.12 µM and 8.16 ± 0.18 µM, respectively.

Turning to `[Cl][Au][PH]12CN3CN(CN(C3)C1)C2` [Urotropine-Au-Cl], the “ExoN enzyme activity remaining” value in [2] (50 mol equiv of compound) was determined as 0.68%.

As for `[Cl][Au]` [AuCl, gold(I) chloride], the IC50 amounted to 5.78 ± 0.31 µM in data set [2] and 0.91 ± 0.01 µM in data set [3] (setting [10]).

Consider `CCP(CC)CC.[Au+].[Cl-]` [Au(PEt3)Cl, chloro(triethylphosphine)gold(I)], for which the “Au(I) bound per nsp10” value in [4] (equilibrium dialysis, ICP-MS) is “ca. 1.84 ± 0.66 mol equiv”. The “Zn(II) release from nsp10” value in data set [4] (equilibrium dialysis, ICP-MS) was “ca. 1.89 ± 0.28 mol equiv”. In addition, the “maximal binding capacity (Bmax), nsp10” value in [4] (fit to specific binding plot) is given as 1.75 ± 0.60. Also, the Kd in data set [4] (fit to specific binding plot, read-out: dissociation constant (Kd), nsp10) stood at 6.55 ± 0.77 µM; in data set [6] (fit to specific binding plot, read-out: dissociation constant (Kd), nsp14) it was 6.54 ± 0.33 µM. Moreover, the “mode of inhibition of ExoN activity” value in data set [2] (Lineweaver–Burk / Michaelis–Menten analysis) is reported as “noncompetitive”. Further, the “Vmax, ExoN kinetics” value in data set [2] (decreased from 2.7 with different molar equivalents of Au(I)) stood at 0.5 nM/min. Moreover, the IC50 in data set [2] came out at 0.38 ± 0.04 µM; in data set [3] (setting [10]) it was 4.5 ± 0.98 µM. Moreover, the “effect on formation of the nsp14−RNA complex” value in data set [5] was “negligible effects”. Besides, the “Au(I) bound per nsp14” value in data set [6] (equilibrium dialysis, ICP-MS) is recorded as “ca. 2.95 ± 0.23 mol equiv”. Besides, in data set [6] (equilibrium dialysis, ICP-MS), the “Zn(II) release from nsp14” value is on record as “ca. 2.56 ± 0.21 mol equiv”. Also, in [6] (fit to specific binding plot), the “maximal binding capacity (Bmax), nsp14” value was 3.10 ± 0.32. Further, in data set [3], the “Vmax, G(5′)ppp(5′)A RNA-dependent MTase kinetics” value was 0.12 µM/min. The “Vmax, SAM-dependent MTase kinetics” value in [3] worked out at 0.09 µM/min. In data set [3] (SAM- and GpppA-RNA-dependent kinetics), the “mode of inhibition of MTase activity” value is on record as “noncompetitive”. For the same molecule, the Michaelis constant (Km) in data set [3] (read-out: Km, G(5′)ppp(5′)A RNA-dependent MTase kinetics) was 1.18 ± 0.02 µM; in data set [3] (read-out: Km, SAM-dependent MTase kinetics), 1.62 ± 0.02 µM. In [7], the “effect on quaternary structure of nsp14” value is on record as “partial oligomerization”. In addition, the “helix content in nsp14 after treatment” value in [8] was 36%.

Turning to `O=S(=O)([O-])[S-].O=S(=O)([O-])[S-].[Au+].[Na+].[Na+].[Na+]` [Na3Au(S2O3)2, gold(I) sodium thiosulfate], the figures for the half-inhibitory concentration (IC50) in data set [2] and in data set [3] were 1.71 ± 0.09 µM and 1.77 ± 0.01 µM, respectively.

B1: ExoN substrate dsRNA (dsRNA)
RNA 1: GGUAGUAAUCCGCUC
RNA 2: UUUUUUUUUUUUUUUUUUUUGAGCGGAUUACUACUACC
On to B1, for which the binding result in data set [9] was “binds”.
